In PMC10765869, “Synthesis, design, biological evaluation, and computational analysis of some novel uracil-azole derivatives as cytotoxic agents” (BMC Chemistry, 2024):
Read-outs that look alike come from different tables or passages of the source.

What was measured:
[1] = tested on: normal lung cell line (MRC-5); assay: MTT assay, MRC-5 normal cells; type: cell-based
[2] = tested on: HEPG-2 (Hepatocellular carcinoma) cell line; assay: MTT assay, HEPG-2; type: cell-based, human; settings: mean ± SD, triplicate
Description: (§1) The cytotoxic activity of the designed compounds (4a-4l) was obtained by MTT assay (standard 3-(4,5-dimethylthiazol-yl)-2,5-diphenyl-tetrazolium bromide) according to our previous protocols. Two human cancer cell lines including MCF-7 (breast carcinoma) and HEPG-2 (Hepatocellular carcinoma) were purchased from the National Cell Bank of Iran (NCBI, Pasteur Institute, Tehran, Iran). RPMI 1640 culture media was used to culture cancer cell lines. The media was supplemented with 10% fetal bovine serum (FBS) and 1% penicillin–streptomycin (Gibco, USA), and the cells were kept at 37 °C in a humidified CO2 incubator. For the MTT assay, trypsin/EDTA 0.5% solution (Gibco/USA) was applied to harvest cells and seeded in 96-well microplates at a density of 1 × 10^4 cells per well [26]. Five different concentrations of the designed compounds and Cisplatin as the positive control (1–200 μM) were used for treatment in triplicate times. Three untreated wells were used as the negative control. After 72 h, the media was changed by 100 μL fresh MTT solution and incubated for 4 h at 37 °C in the incubator to obtain formazan purple crystals. Finally, the media was removed and 150 μL of DMSO was added and incubated at 37 °C in dark for 10 min to dissolve the crystals. The absorbance of individual wells was read at 490 nm using a microplate ELISA reader. Excel 2016 and Curve Expert 1.4 were used to analyze the data. The data were presented as mean ± SD for each analysis.

[3] = tested on: MCF-7 (breast carcinoma) cell line; assay: MTT assay, MCF-7; type: cell-based, human; settings: mean ± SD, triplicate
Description: as §1

[4] = tested on: a studied cancer cell line; design: method as in PMID 32736079; settings: cited from earlier work
[5] = tested on: MCF-7 and HEPG-2 cell lines; assay: MTT assay, ranges over both cancer cell lines; type: cell-based; settings: Homo sapiens; range spans both cell lines
Description: as §1, with “Excel 2016 and Curve Expert 1.4 were used to analyze the data. The data were presented as mean ± SD for each analysis.” left out

[6] = tested on: Hela cell line; design: method as in PMID 33808444; settings: cited from earlier work
[7] = tested on: Huha cell line; design: method as in PMID 33808444; settings: cited from earlier work
[8] = Homo sapiens, MRC5, read-out: IC50 ± SD, MRC-5

melting point [°C] | IC50 ([2]; Homo sapiens, HepG2, 72 h) [µM] | IC50 ([3]; Homo sapiens, MCF7, 72 h) [µM] | Compound | IC50 [1, 8] [µM] | further results
125 to 128 | 65.4 ± 2.15 | 43.1 ± 2.07 | Cc1cccc(Cn2c(-n3cncn3)cc(=O)n(C)c2=O)c1 [Compound 4i, 3-methyl-1-(3-methylbenzyl)-6-(H1-1,2,4-triazole-1-yl) pyrimidine-2,4-(H1, H3) dione] | > 200 | 
120 to 122 | 55.9 ± 6.58 | 65.5 ± 3.1 | Cc1ccc(Cn2c(-n3ccnc3C)cc(=O)n(C)c2=O)cc1 [Compound 4f, 3-methyl-1-(4-methylbenzyl)-6-(2-methyl-H1-imidazole-1-yl) pyrimidine-2,4-(H1, H3) dione] | > 200 | 
110 to 113 | 177 ± 4.06 | 131 ± 3.1 | Cn1c(=O)cc(-n2ccnc2)n(Cc2ccc(Br)cc2)c1=O [Compound 4d, 3-methyl-1-(4-bromobenzyl)-6-(H1-imidazole-1-yl) pyrimidine-2,4-(H1, H3) dione] | > 200 | 
160 to 162 | 106 ± 3.03 | 109 ± 3.74 | Cc1nccn1-c1cc(=O)n(C)c(=O)n1Cc1ccc(Br)cc1 [Compound 4g, 3-methyl-1-(4-bromobenzyl)-6-(2-methyl-H1-imidazole-1-yl) pyrimidine-2,4-(H1, H3) dione] | > 200 | 

Second part, the compound before the results:

Compound | melting point [°C] | IC50 ([2]; Homo sapiens, HepG2, 72 h) [µM] | IC50 ([3]; Homo sapiens, MCF7, 72 h) [µM] | IC50 [1, 8] [µM] | further results
N.N.[Cl][Pt][Cl] [Cis platin, Cisplatin, reference compound] |  |  |  |  | IC50 ([1]; read-out: IC50 ± SD, MRC-5): 45.2 ± 2.5 µM; IC50 ([2]; 72 h): 15.9 ± 1.83 µM; IC50 ([3]; 72 h): 20.7 ± 0.83 µM
O=c1[nH]c(=O)n(Cc2ccc(-c3noc(-c4ccc(-c5ccccc5)cc4)n3)cc2)cc1F [A] |  |  |  |  | IC50 [4]: 0.88 µM
Cc1cccc(Cn2c(-n3ccnc3)cc(=O)n(C)c2=O)c1 [Compound 4b, 3-methyl-1-(3-methylbenzyl)-6-(H1-imidazole-1-yl) pyrimidine-2,4-(H1, H3) dione] | 123 to 124 | 48.5 ± 1.97 | 17.1 ± 1.3 | 61.8 ± 2.3 | IC50 [5]: 17.1 to 48.5 µM
Cc1nccn1-c1cc(=O)n(C)c(=O)n1Cc1ccccc1 [Compound 4e, 3-methyl-1-(benzyl) 6-(2-methyl-H1-imidazol-1-yl) pyrimidine-2,4-(H1, H3) dione] | 138 to 140 |  | 92 ± 2.19 | > 200 | 
Cn1c(=O)cc(-n2ccnc2)n(Cc2ccccc2)c1=O [Compound 4a, 3-methyl-1-(benzyl)-6-(H1-imidazole-1-yl) pyrimidine-2,4-(H1, H3) dione] | 138 to 142 | 193 ± 7.98 | 150.5 ± 0.77 | > 200 | 
Cc1ccc(Cn2cc(Cn3c(Cl)cc(=O)n(C)c3=O)nn2)cc1 [B] |  |  |  |  | IC50 [6]: 4.5 µM; IC50 [7]: 7.7 µM
Cc1ccc(Cn2c(-n3ccnc3)cc(=O)n(C)c2=O)cc1 [Compound 4c, 3-methyl-1-(4-methylbenzyl)-6-(H1-imidazole-1-yl) pyrimidine-2,4-(H1, H3) dione] | 100 to 102 | 27.2 ± 1.66 | 26.1 ± 4.41 | 101 ± 3.02 | IC50 [5]: 17.1 to 48.5 µM
Cc1ccc(Cn2c(-n3cncn3)cc(=O)n(C)c2=O)cc1 [Compound 4j, 3-methyl-1-(4-methylbenzyl)-6-(H1-1,2,4-triazole-1-yl) pyrimidine-2,4-(H1, H3) dione] | 116 to 118 | 7.56 ± 5.28 | 16.2 ± 1.02 | 57.3 ± 2.08 | 
Cn1c(=O)cc(-n2cncn2)n(Cc2ccccc2)c1=O [Compound 4h, 3-methyl-1-(benzyl)-6-(H1-1,2,4-triazole-1-yl) pyrimidine-2,4-(H1, H3) dione] | 91 to 93 |  |  |  | 
